The values that follow come from a melting point compilation (Tetko et al.; mined from patent text by program, amines drawn as free bases though some values may be those of a salt).

Some results are limits rather than exact numbers.

For `Cc1nc(-c2ccccc2F)n(O)c1-c1cccnc1`, the melting point (in general, the temperature of the solid-liquid transition) is 65 to 75 °C.

In the case of `c1ccc2c(c1)[nH]c1cnc(-c3nc(C4CC4)no3)cc12`, the melting point lay in the range of 256 to 257 °C.

`CCc1cc(Cl)c(OC)c(C(=O)N[C@H]2CCN(CCCC(=O)N3CCCC3)C[C@H]2OC)c1O` (relative stereo) displayed a melting point of 90.8 °C.

Take `Nc1nc(N)c2c(ccc3c2c2c(n3Cc3ccccc3)CCCC2)n1`: the melting point was in the range of 224 to 226 °C.

Regarding `CCOC(=O)CC[C@H](NC(=O)c1ccc(C=Cc2cnc3nc(NC(C)=O)nc(O)c3c2)cc1)C(=O)OCC`, the melting point was over 200 °C.

In the case of `CCCC/C(=C\C=C\C(=O)Oc1ccc([N+](=O)[O-])cc1)c1ccc(OC)cc1`, the melting point fell in the range of 78 to 80 °C.

The compound `Cc1nc(N2CCc3ccc(F)cc3CC2)c([N+](=O)[O-])c(=O)[nH]1` registered a melting point of over 200 °C.

In turn, `COc1cc2c(cc1-c1cccnc1)-c1c(-c3cncs3)c3c(n1CC2)C(=O)N(C(C)(C)C)CCCOC3` registered a melting point of 200 to 201 °C.

The compound `O=C(O)Cc1cccc(-c2ccccc2OC2OC(CO)C(O)C(O)C2O)c1` (stereo unspecified) gave a melting point of 85 to 86 °C.

With `CS(=O)(=O)c1ccc(-c2oc(CO)cc(=O)c2Oc2ccc(Cl)cc2)cc1`, the melting point is 227 °C.

Compound `O=C(O)CCOc1ccccc1-c1nc(-c2ccccc2)no1` yielded a melting point of 170 to 171 °C.

`CCOC(=O)C(C)CNc1c(C#N)cnn1-c1c(F)c(F)c(CC)c(F)c1F` (stereo unspecified) returned a melting point of 76 to 78 °C.

Compound `COc1cc(CC(CO)NC(=O)c2ccccc2)cc(OC)c1` (stereo unspecified) gave a melting point of 117 to 118 °C.

Compound `CC(CC(=O)O)C(=O)N1CCC[C@H]1C(=O)O` (stereo partly specified) displayed a melting point of 132 to 133 °C.

For `Cn1c(=O)c(-c2ccc(Cl)cc2Cl)cc2c3cc(-c4csc(N)n4)ccc3n(C)c21`, the melting point was 272 to 273 °C.

Regarding `COc1ccc2cnc(=O)[nH]c2c1C(C)C`, the melting point lay within 188 to 190 °C.

Compound `COC(=O)c1cccc2c(-c3ccc(O)cc3)n(C(C)C)nc12` had a melting point of 195 to 196 °C.

`O=C(CCC1CCN(Cc2ccccc2)CC1)c1ccc(N2CCCC2)cc1`: the melting point was 144 to 145 °C.

With `Cc1ccc(N2C(=O)C(O)=C(C(=O)c3ccc(OC(F)(F)F)cc3)C2c2ccc(Cn3cnnn3)cc2)nn1` (stereo unspecified), the melting point was over 300 °C.

In turn, `O=C(O)COc1ccc2c(-c3ccccc3F)noc2c1Br` had a melting point of 180 to 182 °C.

The compound `Clc1ccc(C2(c3ccc4nccc(CCc5ccc(Cl)s5)c4c3)OCCO2)cc1` yielded a melting point of 94 °C.

Compound `COc1ccccc1-c1cccn2nc(Nc3ccc4c(c3)CCN(CC(=O)N(C)C)CC4)nc12` came in with a melting point of 102 to 105 °C.

`Fc1nc2ccccc2cc1Br`: the melting point lay within 75 to 76 °C.

As to `COc1ccc(-c2cc(CO)nn2-c2ccc(S(N)(=O)=O)cc2)cc1I`, the melting point lay within 196 to 198 °C.

Consider `Cc1ccc(-c2c3cc(C)ccc3nc3ccc(C)cc23)cc1`, for which the melting point lay in the range of 210 to 211 °C.

Take `COc1ccc(Cl)c(NC(=O)N(C)c2cc(Nc3ccc(N4CCN(C)CC4)cc3)ncn2)c1Cl`: the melting point fell in the range of 162 to 163 °C.

On to `CC(C)(C)c1cc(CCC(=O)O)cc2nc(-c3ccc(-c4nc5cc(CCC(=O)O)cc(C(C)(C)C)c5o4)s3)oc12`, for which the melting point lay within 247 to 248 °C.

Consider `O=C(c1ccccc1)c1cc(C(F)(F)F)ccc1NC=C[N+](=O)[O-]`, for which the melting point was 196 to 198 °C.

Compound `Cc1nnc2n1-c1sc(C(N)=O)cc1C(c1ccccc1Cl)=NC2` gave a melting point of 230 to 232 °C.

With `O=C(O)c1cccc(CNC(=O)C2Cc3ccccc3N2S(=O)(=O)c2ccc(-c3cccc(C(F)(F)F)c3)cc2)c1` (stereo unspecified), the melting point was 96 °C.

`COc1ccc(OC)c(-c2ccc(C(C)=NOCCOc3ccc(CC4SC(=O)NC4=O)cc3)cc2)c1` (stereo unspecified) displayed a melting point of 47 to 52 °C.

For the compound `COC(=O)C1=C(C)NC(CC(=O)N2CCN(C3CCC4CCC3C4)CC2)=C(C(=O)OC)C1c1c(Cl)cccc1Cl` (stereo unspecified), the melting point was in the range of 197 to 207 °C.

For `CS(=O)(=O)N1CCN([C@@H](CNC(=O)c2ccc(OCc3ccc(F)cc3)cc2)C(=O)NO)CC1`, the melting point amounted to 194 °C.

As for `Cc1ccc(C(=O)NC(NC(=S)Nc2cccnc2)C(C)C)cc1` (stereo unspecified), the melting point lay in the range of 184 to 186 °C.

For the compound `CCOC(=O)Cc1ccc([N+](=O)[O-])c(OCC(F)(F)F)c1`, the melting point lay in the range of 76 to 77 °C.

For `COC(=O)C(ON1C(C)(C)CCCC1(C)C)c1ccccc1` (stereo unspecified), the melting point is 83 to 86 °C.

The compound `COc1cc(C2c3cc4c(cc3C(NC3=C(C)C(=O)N(C)C3=O)C3COC(=O)C23)OCO4)cc(OC)c1O` (stereo unspecified) gave a melting point of 172 to 176 °C.

For the compound `CS(=O)(=O)OCCC1(CCOS(C)(=O)=O)c2ccccc2Oc2ccccc21`, the melting point fell in the range of 121 to 122 °C.

`COC(=S)c1nc(-c2ccccc2)c(N)nc1N`: the melting point is 210 °C.

Compound `Cc1cccc2nc(C(F)(F)F)n(C3CCC(=O)NC3=O)c(=O)c12` (stereo unspecified) showed a melting point of 308 to 310 °C.

Turning to `O=C(Nc1ccc(-n2nc(C(F)(F)F)cc2C2CC2)c(F)c1)c1ccncc1F`, the melting point fell in the range of 161 to 165 °C.

With `C=CCCc1cc(C2(c3ccc(OC(F)F)cc3)N=C(N)N(C)C2=O)ccc1F` (stereo unspecified), the melting point lay within 55 to 58 °C.

`Cc1nc2c(S(N)(=O)=O)cccc2s1`: the melting point is 236 to 239 °C.

`COc1cc(C(=O)NS(=O)(=O)c2ccccc2C)ccc1Cc1cccc2ccc(NC(=O)CC3CCCC3)cc12` displayed a melting point of 248 to 249 °C.

In turn, `CNc1c(N)c(C)nn1C` displayed a melting point of 87 °C.

Regarding `CCCc1nc2c(N)nc(C)c(C)c2n1CCCS(C)(=O)=O`, the melting point lay within 154 to 155 °C.

`COc1ncnc(OC)c1NC(=O)CCl`: the melting point was 193 to 195 °C.

For the compound `O=c1[nH][nH]c(=O)n1-c1c(F)cc(F)cc1F`, the melting point is 221 to 222 °C.

The compound `Fc1ccc(COc2cccnc2NC(=S)Nc2ccc(Cl)cc2)c(F)c1` came in with a melting point of 154 to 156 °C.

For `NS(=O)(=O)c1cc2c(cc1Cl)C(=O)N(CCN1CCOCC1)C2=O`, the melting point was 218 to 219 °C.

The compound `Cc1nc(N)c2ncn(CCCCNC(=O)N3CCOCC3)c2c1C` showed a melting point of 164 to 167 °C.

As to `N#Cc1ccc(-c2ccc(OC3SCC(O)C(O)C3O)cn2)cn1` (stereo unspecified), the melting point stood at 167 °C.

Regarding `CCOC(=O)C(NC(=O)C[N+](=O)[O-])C(=O)OCC`, the melting point was in the range of 118 to 121 °C.

Compound `Cc1cccc2c1CCc1ccccc1C2(O)CCCN=Cc1ccccc1` (stereo unspecified) yielded a melting point of 130 to 131 °C.

Compound `CC(C)n1c(=S)nc(-c2ccccc2)c2cc3c(cc21)OCO3` registered a melting point of 202 to 205 °C.

For `Oc1ccc(-c2ccc3c(Br)c(O)ccc3c2)cc1`, the melting point lay within 208 to 210 °C.

As to `N#Cc1ccccc1NC(=O)c1ccc(-n2nc(C(F)(F)F)cc2C(F)(F)F)cc1`, the melting point is 203 to 205 °C.

Compound `O=c1c2c(oc3ncccc13)-c1ccccc1CCC2` displayed a melting point of 186 to 190 °C.

Consider `CC(C)COC(=O)Nc1cccc(-c2ccnc3c(-c4cccs4)cnn23)c1`, for which the melting point fell in the range of 140 to 141 °C.

`CC(C)c1c(C(=O)Nc2ccc(O)cc2)c(-c2ccccc2)c(-c2ccc(F)cc2)n1CC[C@@H]1C[C@@H](O)CC(=O)O1` registered a melting point of 130 to 133 °C.

`Cc1ccc(-n2nc3c(cc2=O)CCc2cnccc2-3)cc1` yielded a melting point of 188 to 189 °C.

In turn, `Nc1c(-c2ccc(C(F)(F)F)cc2F)nnn1Cc1ccc(S(N)(=O)=O)cc1` showed a melting point of 180 to 181 °C.

Consider `CC(C)CCOC(=O)COc1cc(F)ccc1C(=O)NCc1cccc([N+](=O)[O-])c1`, for which the melting point was 65 to 68 °C.

As for `O[C@@H]1CN=C(c2ccc(N3CCOCC3)cc2)O[C@H]1c1ccccc1` (racemic), the melting point amounted to 150 °C.

Compound `O=C(Nc1ccc2c(c1)CCN(C(=O)Nc1ccc(OCC(O)CO)cc1Cl)C2)Nc1ccccc1F` (stereo unspecified) had a melting point of 164 to 167 °C.

`O=c1ccc(CO)c[nH]1` returned a melting point of 130 °C.

Regarding `N#Cc1cncc(I)c1Cl`, the melting point was in the range of 120 to 122 °C.

`CCCn1cc(C(=O)O)c(=O)c2cnc(N3CCNCC3)nc21`: the melting point lay in the range of 259 to 261 °C.

In turn, `O=S(=O)(c1ccc(F)cc1)N1CCCC1c1ccco1` (racemic) displayed a melting point of 69 °C.

For `N#Cc1c(-c2ccccc2)c(-c2ccccc2)nn(CCCO)c1=O`, the melting point is 156 to 157 °C.

On to `O=Cc1ccc(F)c(F)c1`, for which the melting point lay in the range of 95 to 96 °C.

`O=C(O)COc1ccc(C(=C2SCCCS2)c2ccccc2)cc1` registered a melting point of 176 to 177 °C.

As for `CN1C(=O)CC[C@]2(C)c3ccc(-c4cccc(CNC(c5ccccc5)c5ccccc5)c4)cc3CC[C@@H]12`, the melting point lay within 55 to 57 °C.

Take `Cc1nc2c(N)nc3ccccc3c2n1CCCCCCS(C)(=O)=O`: the melting point lay within 202 to 206 °C.

`CCOC(=O)c1cn2c3ccc(Br)cc3c3cc(OC)cc(c1=O)c32`: the melting point was 95.6 to 97.6 °C.

On to `O=C1CCC(N2C(=O)c3cccc(NCc4cccc(Cl)c4)c3C2=O)C(=O)N1` (stereo unspecified), for which the melting point was 207 to 209 °C.

In the case of `CS(=O)(=O)c1ccc(/C=C/c2nc3ccccc3n2-c2ccccn2)cc1`, the melting point is 152 to 154 °C.

`Cc1[nH]cnc1CSCCNc1ncc(Cc2ccc(Cl)cc2)c(=O)[nH]1` registered a melting point of 204 to 206 °C.

`Cc1cc(C)cc(-n2ncc(C(=O)O)c2C(N)=O)c1` yielded a melting point of 223 to 225 °C.

Regarding `CC(C)OC(=O)c1cc(Cl)c(Cl)c(Cl)n1`, the melting point is 105 to 106 °C.

Compound `CC(C)n1c(=O)c2cc(C(=O)O)cn2c2ccccc21` returned a melting point of 238 to 240 °C.

`COC(=O)c1ccc(Cl)c2c1C=CCO2` gave a melting point of 49 to 50 °C.

Take `O=C(Nc1cccc(Cl)c1)C1=Cc2ccccc2S1=O` (stereo unspecified): the melting point fell in the range of 257 to 258 °C.

Compound `OCC1CCC(N2CCC(=C3c4ccccc4Sc4ccc(C(F)(F)F)cc43)CC2)CC1` (stereo unspecified) yielded a melting point of 193 to 197 °C.

`Cc1cn(C2OC(C)(CO)C(O)C2F)c(=O)[nH]c1=O` (stereo unspecified) displayed a melting point of 80 °C.

In the case of `CCCC1=C(C#N)C(c2ccccc2Cl)c2c(n[nH]c2C(C)(C)C)N1` (stereo unspecified), the melting point was over 270 °C.
